Results published in PMC11904993, “Humanized Candida and NanoBiT Assays Expedite Discovery of Bdf1 Bromodomain Inhibitors With Antifungal Potential” (Advanced Science, 2025).
Values joined by “and” are separate entries in the source; they are usually repeats but may differ in a detail not shown here. Equal values may be shown once.

Assays:
human Brd4 BD2 = biological target: T1, human Brd4 BD2 (Homo sapiens, UniProt O60885); assay: HTRF assay, inhibition of H4ac4 peptide binding; conditions: Brd4 BD2
T1 construct: GST‐tagged BD2 (residues 349–460) from human Brd4 (UniProt ID O60885); purchased Reaction Biology Corp

CgBdf1 BD2 = CgBdf1 BD2 (Candida glabrata, UniProt Q6FWV7); assay: biochemical; format: binding, C. glabrata
CgBdf1 BD1 = CgBdf1 BD1 (Candida glabrata, UniProt Q6FWV7); assay: HTRF assay, inhibition of H4ac4 peptide binding; set-up: species or system C. glabrata; conditions: for HTRF signal, normalized (Figure 5A data): 240 min
human Brd4 BD1 = human Brd4 BD1 (Homo sapiens, UniProt O60885); assay: HTRF assay, inhibition of H4ac4 peptide binding; conditions: Brd4 BD1

Sequence of CgBdf1 BD2 (Q6FWV7 entry or part of it): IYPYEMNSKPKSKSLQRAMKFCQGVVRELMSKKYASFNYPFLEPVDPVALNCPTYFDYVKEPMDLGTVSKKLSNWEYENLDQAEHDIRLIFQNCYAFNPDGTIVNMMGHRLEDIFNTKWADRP
Sequence of CgBdf1 BD1 (Q6FWV7 entry or part of it): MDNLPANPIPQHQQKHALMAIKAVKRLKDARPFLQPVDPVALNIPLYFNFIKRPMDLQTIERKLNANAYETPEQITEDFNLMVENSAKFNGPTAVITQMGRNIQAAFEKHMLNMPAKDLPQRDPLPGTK

For CC(=O)N1c2ccc(-c3ccc(C(=O)O)cc3)cc2C(Nc2ccc(Cl)cc2)CC1C (stereo not drawn) [I-BET726], the “HTRF signal, normalized (Figure 5A data)” value (human Brd4 BD2; 5.24 nM) was 8.26 and 9.91 and 8.75 and 10.80, the “HTRF signal, normalized (Figure 5A data)” value (human Brd4 BD2; 32.77 nM) was 3.03 and 2.91 and 2.46 and 2.11 and the “HTRF signal, normalized (Figure 5A data)” value (human Brd4 BD2; 81.92 nM) was 2.74 and 1.64 and 1.67 and 2.48. For the same compound, the “HTRF signal, normalized (Figure 5A data)” value (human Brd4 BD2; 512 nM) was 2.01 and 2.50 and 2.14 and 2.65, the activity at 0.0021 µM (CgBdf1 BD2; 24 h, CgBD2, 2.10 nM, read-out: HTRF signal, normalized (Figure 5A data)) was 98.3% and the activity at 0.01311 µM (CgBdf1 BD2; 24 h, CgBD2, 13.11 nM, read-out: HTRF signal, normalized (Figure 5A data)) was 91.8%. The activity at 0.03277 µM (CgBdf1 BD2; 24 h, CgBD2, 32.77 nM, read-out: HTRF signal, normalized (Figure 5A data)) was 80.2%, the activity at 0.08192 µM (CgBdf1 BD2; 24 h, CgBD2, 81.92 nM, read-out: HTRF signal, normalized (Figure 5A data)) was 54.9% and the activity at 0.2048 µM (CgBdf1 BD2; 24 h, CgBD2, 204.8 nM, read-out: HTRF signal, normalized (Figure 5A data)) was 20.4%. It also gave an activity at 0.512 µM (CgBdf1 BD2; 24 h, CgBD2, 512 nM, read-out: HTRF signal, normalized (Figure 5A data)) of 9.19%, an activity at 1.28 µM (CgBdf1 BD2; 24 h, CgBD2, 1280 nM, read-out: HTRF signal, normalized (Figure 5A data)) of 5.95% and an activity at 0.00524 µM (CgBdf1 BD2; 24 h, read-out: HTRF signal, normalized (Figure 5A data)) of 93.2%. For the same compound, the IC50 (CgBdf1 BD2; Fig 5A, four replicates, read-out: IC50 (μM) BD2, C. gla. Bdf1) was 0.085 ± 0.012 µM, the “HTRF signal, normalized (Figure 5A data)” value (CgBdf1 BD1; 0.00524 µM) was 100.65 and 90.91 and 103.41 and the activity at 0.01311 µM (CgBdf1 BD1; 4 h, CgBD1, 13.11 nM, read-out: HTRF signal, normalized (Figure 5A data)) was 104%. For the same compound, the activity at 0.03277 µM (CgBdf1 BD1; 4 h, CgBD1, 32.77 nM, read-out: HTRF signal, normalized (Figure 5A data)) was 101%, the activity at 0.08192 µM (CgBdf1 BD1; 4 h, CgBD1, 81.92 nM, read-out: HTRF signal, normalized (Figure 5A data)) was 100% and the activity at 0.2048 µM (CgBdf1 BD1; 4 h, CgBD1, 204.8 nM, read-out: HTRF signal, normalized (Figure 5A data)) was 95.5%. It also gave an activity at 0.512 µM (CgBdf1 BD1; 4 h, CgBD1, 512 nM, read-out: HTRF signal, normalized (Figure 5A data)) of 85.3%, an activity at 3.2 µM (CgBdf1 BD1; 4 h, CgBD1, 3200 nM, read-out: HTRF signal, normalized (Figure 5A data)) of 40.5% and an activity at 8 µM (CgBdf1 BD1; 4 h, CgBD1, 8000 nM, read-out: HTRF signal, normalized (Figure 5A data)) of 10.1%. For the same compound, the activity at 0.00524 µM (CgBdf1 BD1; 4 h, read-out: HTRF signal, normalized (Figure 5A data)) was 103%, the “HTRF signal, normalized (Figure 5A data)” value (CgBdf1 BD1; CgBD1, 2.10 nM, 0.0021 µM) was 106.06 and 99.07 and 83.43 and 98.63 and the “HTRF signal, normalized (Figure 5A data)” value (CgBdf1 BD1; CgBD1, 13.11 nM, 0.01311 µM) was 90.77 and 95.51 and 103.15. For the same compound, the “HTRF signal, normalized (Figure 5A data)” value (CgBdf1 BD1; CgBD1, 32.77 nM, 0.03277 µM) was 93.49 and 101.00 and 99.77, the “HTRF signal, normalized (Figure 5A data)” value (CgBdf1 BD1; CgBD1, 204.8 nM, 0.2048 µM) was 107.13 and 88.05 and 91.40 and the “HTRF signal, normalized (Figure 5A data)” value (CgBdf1 BD1; CgBD1, 512 nM, 0.512 µM) was 93.88 and 86.26 and 86.89. The “HTRF signal, normalized (Figure 5A data)” value (CgBdf1 BD1; CgBD1, 1280 nM, 1.28 µM) was 77.62 and 66.65 and 70.52, the “HTRF signal, normalized (Figure 5A data)” value (CgBdf1 BD1; CgBD1, 3200 nM, 3.2 µM) was 48.37 and 45.98 and 46.29 and the “HTRF signal, normalized (Figure 5A data)” value (CgBdf1 BD1; CgBD1, 8000 nM, 8 µM) was 13.26 and 14.56 and 18.60. The IC50 (CgBdf1 BD1; Fig 5A, four replicates, read-out: IC50 (μM) BD1, C. gla. Bdf1) was 2.52 ± 0.14 µM, the “HTRF signal, normalized (Figure 5A data)” value (human Brd4 BD1; 0.0537 nM) was 104.39 and 100.71 and 99.92 and 101.07 and the “HTRF signal, normalized (Figure 5A data)” value (human Brd4 BD1; 0.13 nM) was 104.60 and 101.29 and 100.85 and 99.75. For the same compound, the “HTRF signal, normalized (Figure 5A data)” value (human Brd4 BD1; 0.34 nM) was 101.49 and 102.55 and 101.26 and 101.01, the “HTRF signal, normalized (Figure 5A data)” value (human Brd4 BD1; 0.84 nM) was 100.78 and 99.59 and 99.33 and 97.74 and the “HTRF signal, normalized (Figure 5A data)” value (human Brd4 BD1; 2.10 nM) was 99.49 and 98.84 and 98.60. For the same compound, the “HTRF signal, normalized (Figure 5A data)” value (human Brd4 BD1; 5.24 nM) was 95.52 and 94.38 and 93.54 and 94.69, the “HTRF signal, normalized (Figure 5A data)” value (human Brd4 BD1; 13.11 nM) was 83.95 and 83.77 and 84.76 and 83.85 and the “HTRF signal, normalized (Figure 5A data)” value (human Brd4 BD1; 32.77 nM) was 48.83 and 48.92 and 64.32 and 62.36. For the same compound, the “HTRF signal, normalized (Figure 5A data)” value (human Brd4 BD1; 81.92 nM) was 17.12 and 16.89 and 27.28 and 27.02, the “HTRF signal, normalized (Figure 5A data)” value (human Brd4 BD1; 204.8 nM) was 4.51 and 4.84 and 6.56 and 8.13 and the “HTRF signal, normalized (Figure 5A data)” value (human Brd4 BD1; 512 nM) was 0.14 and 0.27 and 0.17 and 0.18.
